Usually IC50 stands for the midpoint of a concentration-inhibition curve.

31 molecules from patent US7875647B2, “Heteroaryl-pyrazole derivatives as cannabinoid CB1 receptor antagonists” (Green Cross Corporation, priority 2006, dated 2011) can be followed below.

T1 sequence (P20272 whole entry): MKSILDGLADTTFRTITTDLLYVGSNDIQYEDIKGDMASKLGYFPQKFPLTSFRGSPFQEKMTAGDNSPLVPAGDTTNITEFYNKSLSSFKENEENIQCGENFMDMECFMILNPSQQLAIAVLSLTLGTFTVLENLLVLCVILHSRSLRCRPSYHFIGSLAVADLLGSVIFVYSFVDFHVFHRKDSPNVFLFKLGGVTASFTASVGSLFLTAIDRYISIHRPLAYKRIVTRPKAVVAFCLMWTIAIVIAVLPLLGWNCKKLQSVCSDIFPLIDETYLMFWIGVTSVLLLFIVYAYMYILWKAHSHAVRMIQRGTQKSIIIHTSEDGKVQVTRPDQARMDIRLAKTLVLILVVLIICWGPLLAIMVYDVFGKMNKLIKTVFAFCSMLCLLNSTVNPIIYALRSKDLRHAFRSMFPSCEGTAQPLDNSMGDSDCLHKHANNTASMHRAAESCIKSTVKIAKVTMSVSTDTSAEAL

This test has as its target T1, Cannabinoid-1 receptor (CB1R) (Rattus norvegicus, UniProt P20272).
T1 construct: The tissue obtained from the brain of SD rats was homogenized; from tissue; host or cells: brain of SD rats (membrane pellet of the homogenate)
Kind of test: Cannabinoid-1 receptor (CB1R) binding affinity assay ([3H]CP-55940, rat CB-1 receptor binding protocol). The conditions noted are these: brain tissue of SD rats, [3H]CP-55940, 30° C. 60 min; read-out: IC50.
`CCc1c(-c2nnc(C3CCCC3)s2)nn(-c2ccc(Cl)cc2Cl)c1-c1ccc(Br)cc1` [Example 376, 2-(5-(4-Bromophenyl)-1-(2,4-dichlorophenyl)-4-ethyl-1H-pyrazol-3-yl)-5-cyclopentyl-1,3,4-thiadiazole]: the IC50 worked out at 18.7 nM.
For the molecule `Cc1c(-c2nnc(C(C)(C)C3CCCCC3)s2)nn(-c2ccc(Cl)cc2Cl)c1-c1ccc(Cl)cc1` [Example 394, 2-(5-(4-chlorophenyl)-1-(2,4-dichlorophenyl)-4-methyl-1H-pyrazol-3-yl)-5-(2-cyclohexylpropan-2-yl)-1,3,4-thiadiazole], the half-maximal inhibitory concentration (IC50) came out at 13.9 nM.
“2-(1-benzylcyclopropyl)-5-(5-(4-chlorophenyl)-1-(2,4-dichlorophenyl)-4-methyl-1H-pyrazol-3-yl)-1,3,4-thiadiazole [Example 467]”: the concentration for half-maximal inhibition (IC50) is 14.8 nM.
Turning to `Clc1ccc(-c2c(Cn3cncn3)c(-c3nnc(C4(c5ccc(Cl)cc5Cl)CC4)s3)nn2-c2ccc(Cl)cc2Cl)cc1` [Example 510, 2-(4-((1H-1,2,4-triazol-1-yl)methyl)-5-(4-chlorophenyl)-1-(2,4-dichlorophenyl)-1H-pyrazol-3-yl)-5-(1-(2,4-dichlorophenyl)cyclopropyl)-1,3,4-thiadiazole], the IC50 came to 11.3 nM.
The figure for `CCC(C)(C)c1nnc(-c2nn(-c3ccc(Cl)cc3Cl)c(-c3ccccc3)c2C)s1` [Example 420, 2-(1-(2,4-dichlorophenyl)-4-methyl-5-phenyl-1H-pyrazol-3-yl)-5-tert-pentyl-1,3,4-thiadiazole] is 112 nM.
As for `Cc1c(-c2nnc(C3(Cc4ccc(Cl)cc4)CC3)o2)nn(-c2ccc(Cl)cc2Cl)c1-c1ccc(Cl)cc1` [Example 280, 2-(1-(4-chlorobenzyl)cyclopropyl)-5-(5-(4-chlorophenyl)-1-(2,4-dichlorophenyl)-4-methyl-1H-pyrazol-3-yl)-1,3,4-oxadiazole], the figure is 11.7 nM; as for `Cc1c(-c2nnc(C3CCCCC3)s2)nn(-c2ccccc2Cl)c1-c1ccc(Cl)cc1` [Example 408, 2-(1-(2-chlorophenyl)-5-(4-chlorophenyl)-4-methyl-1H-pyrazol-3-yl)-5-cyclohexyl-1,3,4-thiadiazole], 61 nM.
Take `CCc1c(-c2nnc(C3(c4ccc(Cl)cc4)CCC3)o2)nn(-c2ccccc2Cl)c1-c1ccc(Cl)cc1` [Example 147, 2-(1-(2-chlorophenyl)-5-(4-chlorophenyl)-4-ethyl-1H-pyrazol-3-yl)-5-(1-(4-chlorophenyl)cyclobutyl)-1,3,4-oxadiazole]: the IC50 worked out at 5.75 nM.
Regarding `CC(C)(C)c1nnc(-c2nn(-c3ccc(Cl)cc3Cl)c(-c3ccc(Cl)cc3)c2CF)o1` [Example 221, 2-tert-butyl-5-(5-(4-chlorophenyl)-1-(2,4-dichlorophenyl)-4-(fluoromethyl)-1H-pyrazol-3-yl)-1,3,4-oxadiazole], the 50% inhibitory concentration (IC50) was found to be 14.7 nM.
The figure for `Cc1c(-c2nnc(C3CC=CCC3)s2)nn(-c2ccc(Cl)cc2Cl)c1-c1ccc(Cl)cc1` (stereo not shown) [Example 383, 2-(5-(4-chlorophenyl)-1-(2,4-dichlorophenyl)-4-methyl-1H-pyrazol-3-yl)-5-(cyclohex-3-enyl)-1,3,4-thiadiazole] is 85.3 nM; for `CCc1c(-c2nnc(C3(c4ccc(C)cc4)CC3)s2)nn(-c2ccc(Cl)cc2Cl)c1-c1ccc(Br)cc1` [Example 474, 2-(5-(4-bromophenyl)-1-(2,4-dichlorophenyl)-4-ethyl-1H-pyrazol-3-yl)-5-(1-p-tolylcyclopropyl)-1,3,4-thiadiazole] it is 18.8 nM; for `Cc1c(-c2ncc(C3CCCC3)o2)nn(-c2ccc(Cl)cc2Cl)c1-c1ccc(Cl)cc1` [Example 643, 2-(5-(4-chlorophenyl)-1-(2,4-dichlorophenyl)-4-methyl-1H-pyrazol-3-yl)-5-cyclopentyloxazole] it is 65.5 nM.
Turning to `Cc1c(-c2nnc(C(C)(C)c3ccccc3)s2)nn(-c2ccc(Cl)cc2Cl)c1-c1ccc(Cl)cc1` [Example 401, 2-(5-(4-chlorophenyl)-1-(2,4-dichlorophenyl)-4-methyl-1H-pyrazol-3-yl)-5-(2-phenylpropan-2-yl)-1,3,4-thiadiazole], the IC50 came to 6.9 nM.
For `COC(c1ccccc1)(c1nnc(-c2nn(-c3ccc(Cl)cc3Cl)c(-c3ccc(Cl)cc3)c2C)o1)C(F)(F)F` (stereo not shown) [Example 251, 2-(5-(4-chlorophenyl)-1-(2,4-dichlorophenyl)-4-methyl-1H-pyrazol-3-yl)-5-(2,2,2-trifluoro-1-methoxy-1-phenylethyl)-1,3,4-oxadiazole], the IC50 was 12.8 nM.
In the case of `Cc1c(-c2nnc(-c3ccncc3)o2)nn(-c2ccc(Cl)cc2Cl)c1-c1ccc(Cl)cc1` [Example 2, 2-(5-(4-chlorophenyl)-1-(2,4-dichlorophenyl)-4-methyl-1H-pyrazol-3-yl)-5-(pyridin-4-yl)-1,3,4-oxadiazole], the IC50 turned out to be 563 nM.
Take `FC(F)(F)C1(c2nnc(-c3nn(-c4ccc(Cl)cc4Cl)c(-c4ccc(Cl)cc4)c3Cn3cncn3)s2)CC1` [Example 511, 2-(4-((1H-1,2,4-triazol-1-yl)methyl)-5-(4-chlorophenyl)-1-(2,4-dichlorophenyl)-1H-pyrazol-3-yl)-5-(1-(trifluoromethyl)cyclopropyl)-1,3,4-thiadiazole]: the IC50 was found to be 2.29 nM.
With `CCCCCc1nnc(-c2nn(-c3ccc(Cl)cc3Cl)c(-c3ccc(Cl)cc3)c2C)s1` [Example 361, 2-(5-(4-Chlorophenyl)-1-(2,4-dichlorophenyl)-4-methyl-1H-pyrazol-3-yl)-5-pentyl-1,3,4-thiadiazole], the IC50 is 69.2 nM.
As for `CCc1c(-c2nnc(C3(c4cccc(Cl)c4)CC3)s2)nn(-c2ccc(Cl)cc2Cl)c1-c1ccc(Cl)cc1` [Example 494, 2-(5-(4-chlorophenyl)-1-(2,4-dichlorophenyl)-4-ethyl-1H-pyrazol-3-yl)-5-(1-(3-chlorophenyl)cyclopropyl)-1,3,4-thiadiazole], the figure is 6.43 nM; as for `CC(C)c1c(-c2nnc(C3(C(F)(F)F)CC3)o2)nn(-c2ccc(Cl)cc2Cl)c1-c1ccc(Cl)cc1` [Example 190, 2-(5-(4-chlorophenyl)-1-(2,4-dichlorophenyl)-4-isopropyl-1H-pyrazol-3-yl)-5-(1-(trifluoromethyl)cyclopropyl)-1,3,4-oxadiazole], 15 nM; as for `Cc1c(-c2n[nH]c(C3CCCC3)n2)nn(-c2ccc(Cl)cc2Cl)c1-c1ccc(Cl)cc1` [Example 611, 3-(5-(4-Chlorophenyl)-1-(2,4-dichlorophenyl)-4-methyl-1H-pyrazol-3-yl)-5-cyclopentyl-1H-1,2,4-triazole], 699 nM.
As for `Cc1nnc(-c2nn(-c3ccc(Cl)cc3Cl)c(-c3ccc(Cl)cc3)c2C)s1` [Example 360, 2-(5-(4-chlorophenyl)-1-(2,4-dichlorophenyl)-4-methyl-1H-pyrazol-3-yl)-5-methyl-1,3,4-thiadiazole], the IC50 was 97.2 nM.
On to `Cc1c(-c2nnc(C3(C(C)O)CC3)o2)nn(-c2ccc(Cl)cc2Cl)c1-c1ccc(Cl)cc1` (stereo not shown) [Example 288, 1-(1-(5-(5-(4-chlorophenyl)-1-(2,4-dichlorophenyl)-4-methyl-1H-pyrazol-3-yl)-1,3,4-oxadiazol-2-yl)cyclopropyl)ethanol], for which the IC50 is 60.2 nM.
The figure for `CCc1c(-c2nnc(C(C)(C)CC)s2)nn(-c2ccc(Cl)cc2Cl)c1-c1ccc(Br)cc1` [Example 451, 2-(5-(4-bromophenyl)-1-(2,4-dichlorophenyl)-4-ethyl-1H-pyrazol-3-yl)-5-tert-pentyl-1,3,4-thiadiazole] is 19.7 nM; for `Clc1ccc(-c2c(Cn3cncn3)c(-c3nnc(C4CCC4)s3)nn2-c2ccc(Cl)cc2Cl)cc1` [Example 504, 2-(4-((1H-1,2,4-triazol-1-yl)methyl)-5-(4-chlorophenyl)-1-(2,4-dichlorophenyl)-1H-pyrazol-3-yl)-5-cyclobutyl-1,3,4-thiadiazole] it is 2.18 nM; for `CC(C)(C)c1nnc(-c2nn(-c3ccc(Cl)cc3Cl)c(-c3ccc(Cl)cc3)c2CN2CCOCC2)o1` [Example 293, 4-((3-(5-tert-butyl-1,3,4-oxadiazol-2-yl)-5-(4-chlorophenyl)-1-(2,4-dichlorophenyl)-1H-pyrazol-4-yl)methyl)morpholine] it is 135 nM.
As to `Cc1c(-c2nnnn2C(C)C)nn(-c2ccc(Cl)cc2Cl)c1-c1ccc(Cl)cc1` [Example 575, 5-(5-(4-Chlorophenyl)-1-(2,4-dichlorophenyl)-4-methyl-1H-pyrazol-3-yl)-1-isopropyl-1H-tetrazole], the IC50 was found to be 166 nM.
For the molecule “5-(5-(4-Chlorophenyl)-1-(2,4-dichlorophenyl)-4-methyl-1H-pyrazol-3-yl)-1-cycloheptyl-1H-tetrazole [Example 601]”, the IC50 turned out to be 26.7 nM.
`CC(C)(C)c1nnc(-c2nn(-c3ccc(Cl)cc3Cl)c(-c3ccc(Cl)cc3)c2C(F)F)o1` [Example 224, 2-tert-butyl-5-(5-(4-chlorophenyl)-1-(2,4-dichlorophenyl)-4-(difluoromethyl)-1H-pyrazol-3-yl)-1,3,4-oxadiazole]: the half-maximal inhibitory concentration (IC50) was 36.1 nM.
In the case of `Cc1c(-c2nnnn2C23CC4CC(CC(C4)C2)C3)nn(-c2ccc(Cl)cc2Cl)c1-c1ccc(Cl)cc1` [Example 605, 1-Adamantyl-5-(5-(4-chlorophenyl)-1-(2,4-dichlorophenyl)-4-methyl-1H-pyrazol-3-yl)-1H-tetrazole], the IC50 was 128 nM.
The figure for `CCc1c(-c2nnc(CC3CCCCC3)s2)nn(-c2ccc(Cl)cc2Cl)c1-c1ccc(Br)cc1` [Example 386, 2-(5-(4-bromophenyl)-1-(2,4-dichlorophenyl)-4-ethyl-1H-pyrazol-3-yl)-5-(cyclohexylmethyl)-1,3,4-thiadiazole] is 13.2 nM; for `OCc1c(-c2nnc(C3(c4ccc(Cl)cc4)CC3)o2)nn(-c2ccc(Cl)cc2Cl)c1-c1ccc(Cl)cc1` [Example 201, (5-(4-chlorophenyl)-3-(5-(1-(4-chlorophenyl)cyclopropyl)-1,3,4-oxadiazol-2-yl)-1-(2,4-dichlorophenyl)-1H-pyrazol-4-yl)methanol] it is 4.02 nM.
